assay: in vitro; conditions: human, hek293t cells

In order of rising viability at 48 h, 25 µM:
1. COc1cc2c(cc1OC)C(c1ccccc1)N(C(=O)CCl)CC2 (stereo not shown) [6-K12, 2-chloro-1-(6,7-dimethoxy-1-phenyl-1,2,3,4-tetrahydroisoquinolin-2-yl)ethan-1-one]  0.105%
2. CN(CCOc1ccc(Cl)cc1)C(=O)CCl [5-D16, 2-chloro-N-[2-(4-chlorophenoxy)ethyl]-N-methylacetamide]  0.377%
3. O=C(CCl)N(Cc1ccccc1)Cc1ccc(F)cc1 [5-I06, N-benzyl-2-chloro-N-[(4-fluorophenyl)methyl]acetamide]  0.621%
4. Cc1cc(CN(C(=O)CCl)c2ccc(F)cc2)nn1C [5-E14, 2-chloro-N-[(1,5-dimethyl-1H-pyrazol-3-yl)methyl]-N-(4-fluorophenyl)acetamide]  0.639%
5. O=C(CCl)Nc1cc(Cl)cc(Cl)c1 [4-K09, 2-chloro-N-(3,5-dichlorophenyl)acetamide]  1.41%
6. O=C(CCl)NC1CCN(C(=O)c2ccco2)c2ccccc21 (stereo not shown) [5-O07, 2-chloro-N-[1-(furan-2-carbonyl)-1,2,3,4-tetrahydroquinolin-4-yl]acetamide]  1.59%
7. CC(Oc1cccc(F)c1F)C(=O)N1CCN(C(=O)CCl)CC1 (stereo not shown) [5-H03, 1-[4-(2-chloroacetyl)piperazin-1-yl]-2-(2,3-difluorophenoxy)propan-1-one]  1.67%
8. CCC(NC(=O)CCl)c1cccc(OC)n1 (stereo not shown) [7-D08, 2-chloro-N-[1-(6-methoxypyridin-2-yl)propyl]acetamide]  1.69%
9. O=C(CCl)C1CC1(Cl)Cl (stereo not shown) [10-K09, 2-chloro-1-(2,2-dichlorocyclopropyl)ethan-1-one]  1.74%
10. CC(C)CN(C(=O)CCl)C1CCS(=O)(=O)C1 (stereo not shown) [4-D12, 2-chloro-N-(1,1-dioxo-1lambda6-thiolan-3-yl)-N-(2-methylpropyl)acetamide]  2.44%
11. CC(NC(=O)C(C#N)=Cc1cccc(Cl)c1Cl)c1ccccc1 (stereo not shown) [9-N04, 2-cyano-3-(2,3-dichlorophenyl)-N-(1-phenylethyl)prop-2-enamide]  3.94%
12. O=C(CCl)NCCS(=O)(=O)N1CCc2ccccc21 [6-H04, 2-chloro-N-[2-(2,3-dihydro-1H-indole-1-sulfonyl)ethyl]acetamide]  14.1%
13. C=CC(=O)Nc1ccnn1C1CCCC1 [2-K13, N-(1-cyclopentyl-1H-pyrazol-5-yl)prop-2-enamide]  24%
14. COc1cccc(NC(=O)C(C#N)=Cc2cccc(Cl)c2Cl)c1 [8-F06, 2-cyano-3-(2,3-dichlorophenyl)-N-(3-methoxyphenyl)prop-2-enamide]  29.8%
15. Cc1cccc(C=C(C#N)C(=O)NC2CCCCC2)c1 [8-K07, 2-cyano-N-cyclohexyl-3-(3-methylphenyl)prop-2-enamide]  45%
16. CC(Cl)C(=O)N1CCn2c(cc3c(Cl)cccc32)C1 (stereo not shown) [7-D17, 2-chloro-1-{9-chloro-1H,2H,3H,4H-pyrazino[1,2-a]indol-2-yl}propan-1-one]  55.6%
17. C=CC(=O)Nc1c(OC)nc(Cl)nc1OC [1-B14, N-(2-chloro-4,6-dimethoxypyrimidin-5-yl)prop-2-enamide]  60.2%
18. C=CC(=O)N1CCC(C(=O)N2CCC(CC(N)=O)C2)CC1 (stereo not shown) [2-J14, 2-{1-[1-(prop-2-enoyl)piperidine-4-carbonyl]pyrrolidin-3-yl}acetamide]  65%
19. N#CC(=Cc1ccc(OC(F)F)cc1)C(=O)NC1CCCCC1 [9-A04, 2-cyano-N-cyclohexyl-3-[4-(difluoromethoxy)phenyl]prop-2-enamide]  66.2%
20. C=CC(=O)NCc1conc1C1CCC1 [1-N06, N-[(3-cyclobutyl-1,2-oxazol-4-yl)methyl]prop-2-enamide]  69.5%
21. COC(=O)c1c(NC(=O)CCl)sc2c1CCC(C(C)(C)C)C2 (stereo not shown) [4-J19, methyl 6-tert-butyl-2-(2-chloroacetamido)-4,5,6,7-tetrahydro-1-benzothiophene-3-carboxylate]  69.6%
22. CCCCNC(=O)C(C#N)=Cc1ccc(Cl)cc1 [9-H13, N-butyl-3-(4-chlorophenyl)-2-cyanoprop-2-enamide]  72.9%
23. Cc1cccc(Cc2cnc(NC(=O)C(C)Cl)s2)c1 (stereo not shown) [4-D19, 2-chloro-N-{5-[(3-methylphenyl)methyl]-1,3-thiazol-2-yl}propanamide]  74.1%
24. C=CC(=O)NCc1cnc2ccsc2c1 [2-D11, N-({thieno[3,2-b]pyridin-6-yl}methyl)prop-2-enamide]  74.3%
25. C=CC(=O)N(C)CC(=O)NC1CCCN(c2cc(C)nc(C)n2)C1 (stereo not shown) [3-A12, N-({[1-(2,6-dimethylpyrimidin-4-yl)piperidin-3-yl]carbamoyl}methyl)-N-methylprop-2-enamide]  74.4%
26. C=CC(=O)NCCCn1ccnc1C#N [2-N05, N-[3-(2-cyano-1H-imidazol-1-yl)propyl]prop-2-enamide]  76.3%
27. C=CC(=O)N1CC(n2nc(C)cc2C)C1 [3-B04, 1-[3-(3,5-dimethyl-1H-pyrazol-1-yl)azetidin-1-yl]prop-2-en-1-one]  77.4%
28. C=CC(=O)NC1CN(S(=O)(=O)c2ccc3c(c2)OCCO3)C1 [2-E11, N-[1-(2,3-dihydro-1,4-benzodioxine-6-sulfonyl)azetidin-3-yl]prop-2-enamide]  79.7%
29. C=CC(=O)N1CCC(C(=O)N2CCCCCC2c2ccco2)CC1 (stereo not shown) [2-N20, 1-{4-[2-(furan-2-yl)azepane-1-carbonyl]piperidin-1-yl}prop-2-en-1-one]  80.3%
30. CC(Cl)C(=O)NC1CCN(c2nnnn2C)CC1 (stereo not shown) [7-K08, 2-chloro-N-[1-(1-methyl-1H-1,2,3,4-tetrazol-5-yl)piperidin-4-yl]propanamide]  82.1%
31. COc1cccc(NC(=O)C(C#N)=Cc2ccc(O)cc2)c1 [8-O17, 2-cyano-3-(4-hydroxyphenyl)-N-(3-methoxyphenyl)prop-2-enamide]  82.7%
32. C=CC(=O)NC(Cn1ccnc1)c1ccccc1 (stereo not shown) [2-M06, N-[2-(1H-imidazol-1-yl)-1-phenylethyl]prop-2-enamide]  84.5%
33. O=C(CCl)C1CC12CCCCC2 (stereo not shown) [10-A19, 2-chloro-1-{spiro[2.5]octan-1-yl}ethan-1-one]  86.3%
34. CC(Cl)C(=O)N1CCC(C(=O)c2cccs2)CC1 (stereo not shown) [7-L13, 2-chloro-1-[4-(thiophene-2-carbonyl)piperidin-1-yl]propan-1-one]  86.7%
35. CC(Cl)C(=O)Nc1ccc(F)c(F)c1F (stereo not shown) [4-O08, 2-chloro-N-(2,3,4-trifluorophenyl)propanamide]  88.8%
36. C=CC(=O)N(Cc1sc(C)nc1C)[C@@H](C)[C@H]1COC(C)(C)O1 [1-B15, N-[(1S)-1-[(4S)-2,2-dimethyl-1,3-dioxolan-4-yl]ethyl]-N-[(2,4-dimethyl-1,3-thiazol-5-yl)methyl]prop-2-enamide]  90%
37. C=CC(=O)NCc1ccc(C(=O)N2CCC(NC(C)=O)CC2)cc1 [2-A12, N-{[4-(4-acetamidopiperidine-1-carbonyl)phenyl]methyl}prop-2-enamide]  90.5%
38. CC(=O)N1CCC(NC(=O)C(C)Cl)c2ccc(F)cc2C1 (stereo not shown) [7-I16, N-(2-acetyl-8-fluoro-2,3,4,5-tetrahydro-1H-2-benzazepin-5-yl)-2-chloropropanamide]  92.3%
39. CC(Cl)C(=O)NC(c1ccc(F)cc1)c1cnn(C)c1 (stereo not shown) [7-C19, 2-chloro-N-[(4-fluorophenyl)(1-methyl-1H-pyrazol-4-yl)methyl]propanamide]  93.1%
40. Cc1ccccc1NC(=O)C(C#N)=Cc1cccnc1 [8-D10, 2-cyano-N-(2-methylphenyl)-3-(pyridin-3-yl)prop-2-enamide]  95.5%
41. CCNC(=O)C(C#N)=Cc1ccc(O)c(OCC)c1 [8-O09, 2-cyano-3-(3-ethoxy-4-hydroxyphenyl)-N-ethylprop-2-enamide]  98.9%
42. CC(Cl)C(=O)N1CCN(Cc2ccc(C(F)(F)F)cc2)C(=O)C1 (stereo not shown) [6-N19, 4-(2-chloropropanoyl)-1-{[4-(trifluoromethyl)phenyl]methyl}piperazin-2-one]  99.6%
43. N#CC(=Cc1ccco1)C(=O)NCc1ccc(-c2cccnc2)cc1 [9-F16, 2-cyano-3-(furan-2-yl)-N-{[4-(pyridin-3-yl)phenyl]methyl}prop-2-enamide]  100%
44. C=CC(=O)Nc1ccc(-n2nc(C)[nH]c2=O)cc1 [2-E16, N-[4-(3-methyl-5-oxo-4,5-dihydro-1H-1,2,4-triazol-1-yl)phenyl]prop-2-enamide]  101%
45. CC(NC(=O)CCl)C(=O)N1CCCCC1C (stereo not shown) [5-M06, 2-chloro-N-[1-(2-methylpiperidin-1-yl)-1-oxopropan-2-yl]acetamide]  104%
46. Cc1ccc(C2CS(=O)(=O)CCN2C(=O)C(C)Cl)o1 (stereo not shown) [6-D19, 4-(2-chloropropanoyl)-3-(5-methylfuran-2-yl)-1lambda6-thiomorpholine-1,1-dione]  107%
47. CC(Cl)C(=O)NCc1cc2sccc2s1 (stereo not shown) [6-B07, 2-chloro-N-({thieno[3,2-b]thiophen-2-yl}methyl)propanamide]  109%
48. CC(Cl)C(=O)Nc1ccccc1OC(F)F (stereo not shown) [6-J08, 2-chloro-N-[2-(difluoromethoxy)phenyl]propanamide]  115%
49. C=CCNC(=O)C(C#N)=Cc1cnn(-c2ccc(Cl)cc2)c1 [9-M16, 3-[1-(4-chlorophenyl)-1H-pyrazol-4-yl]-2-cyano-N-(prop-2-en-1-yl)prop-2-enamide]  115%
50. CC(C)NC(=O)C(C#N)=Cc1ccc2c(c1)OCCO2 [9-E11, 2-cyano-3-(2,3-dihydro-1,4-benzodioxin-6-yl)-N-(propan-2-yl)prop-2-enamide]  118%
51. COc1c(C)cnc(CN2CCC(N(C)C(=O)C(C)Cl)CC2)c1C (stereo not shown) [6-A04, 2-chloro-N-{1-[(4-methoxy-3,5-dimethylpyridin-2-yl)methyl]piperidin-4-yl}-N-methylpropanamide]  124%
52. C=CC(=O)N1CCC(n2ccc(C)n2)CC1 [2-A21, 1-[4-(3-methyl-1H-pyrazol-1-yl)piperidin-1-yl]prop-2-en-1-one]  139%
